Experimental data from US20230203043A1, “NOVEL IMIDAZOPYRAZINE DERIVATIVES” (Hoffmann-La Roche Inc., priority 2020, published 2023).
Where a name gives a salt, the structure may show the parent alone.

These molecules were tested on Acinetobacter baumannii ATCC17961 (assay: Antimicrobial susceptibility testing: 90% growth inhibitory concentration (IC90) determination in Iso-Sensitest broth, OD600 growth). Conditions: Acinetobacter baumannii, ATCC17961, 16 h, read-out: A. baumannii ATCC 17961 IC90 (uM), strain ATCC 17961, OD600 growth over 16 h.
Type: cell-based
Outline: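 Each strain, at about 5×10^(5) CFU/ml, was incubated with twofold dilutions of compound at 35±2° C for 16 h, and IC90 was calculated from kinetic optical density measured at 600 nm during logarithmic growth.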

Row | SMILES | IC90 [µM]
1 | NC1CN(C(=O)N2CCN(C(=O)c3ccc(Nc4nccn5c(-c6c[nH]nc6C(F)(F)F)cnc45)cc3Cl)CC2)C1 [Example 266, [4-(3-aminoazetidine-1-carbonyl)piperazin-1-yl]-[2-chloro-4-[[3-[3-(trifluoromethyl)-1H-pyrazol-4-yl]imidazo[1,2-a]pyrazin-8-yl]amino]phenyl] methanone formate] | 0.282
2 | C=CCn1cc(-c2cnc3c(Nc4ccc(C(=O)NCCOCCN)c(CC)c4)nccn23)c(C(F)(F)F)n1 [Example 272, N-[2-(2-aminoethoxy)ethyl]-2-ethyl-4-[[3-[1-prop-2-enyl-3-(trifluoromethyl)pyrazol-4-yl]imidazo[1,2-a]pyrazin-8-yl]amino]benzamide formate] | 0.085
3 | CCc1cc(Nc2nccn3c(-c4cn(C5CCC5)nc4C(F)(F)F)cnc23)ccc1C(=O)NCCOCCN [Example 273, N-[2-(2-aminoethoxy)ethyl]-4-[[3-[1-cyclobutyl-3-(trifluoromethyl)pyrazol-4-yl]imidazo[1,2-a]pyrazin-8-yl]amino]-2-ethylbenzamide formate] | 0.087
4 | C=C(Cl)Cn1cc(-c2cnc3c(Nc4ccc(C(=O)NCCOCCN)c(CC)c4)nccn23)c(C(F)(F)F)n1 [Example 274, N-[2-(2-aminoethoxy)ethyl]-4-[[3-[1-(2-chloroprop-2-enyl)-3-(trifluoromethyl)pyrazol-4-yl]imidazo[1,2-a]pyrazin-8-yl]amino]-2-ethylbenzamide formate] | 0.101
5 | C=C(Cl)C(C)n1cc(-c2cnc3c(Nc4ccc(C(=O)NCCOCCN)c(CC)c4)nccn23)c(C(F)(F)F)n1 (centres unmarked) [Example 275, N-[2-(2-aminoethoxy)ethyl]-4-[[3-[1-(3-chlorobut-3-en-2-yl)-3-(trifluoromethyl)pyrazol-4-yl]imidazo[1,2-a]pyrazin-8-yl]amino]-2-ethylbenzamide formate] | 0.169
6 | CCc1cc(Nc2nccn3c(-c4cn(CC(F)(F)F)nc4C(F)(F)F)cnc23)ccc1C(=O)NCCOCCN [Example 276, N-[2-(2-aminoethoxy)ethyl]-2-ethyl-4-[[3-[1-(2,2,2-trifluoroethyl)-3-(trifluoromethyl)pyrazol-4-yl]imidazo[1,2-a]pyrazin-8-yl]amino]benzamide formate] | 0.178
7 | CCc1cc(Nc2nccn3c(-c4cn(CC5CC5(F)F)nc4C(F)(F)F)cnc23)ccc1C(=O)NCCOCCN (centres unmarked) [Example 277, N-[2-(2-aminoethoxy)ethyl]-4-[[3-[1-[(2,2-difluorocyclopropyl)methyl]-3-(trifluoromethyl)pyrazol-4-yl]imidazo[1,2-a]pyrazin-8-yl]amino]-2-ethylbenzamide formate] | 0.186
8 | CCc1cc(Nc2nccn3c(-c4cn(C(CO)CCl)nc4C(F)(F)F)cnc23)ccc1C(=O)NCCOCCN (centres unmarked) [Example 278, N-[2-(2-aminoethoxy)ethyl]-4-[[3-[1-(1-chloro-3-hydroxypropan-2-yl)-3-(trifluoromethyl)pyrazol-4-yl]imidazo[1,2-a]pyrazin-8-yl]amino]-2-ethylbenzamide formate] | 0.332
9 | CCc1cc(Nc2nccn3c(-c4cn(CC(C)(CO)CCl)nc4C(F)(F)F)cnc23)ccc1C(=O)NCCOCCN (centres unmarked) [Example 279, N-[2-(2-aminoethoxy)ethyl]-4-[[3-[1-[2-(chloromethyl)-3-hydroxy-2-methylpropyl]-3-(trifluoromethyl)pyrazol-4-yl]imidazo[1,2-a]pyrazin-8-yl]amino]-2-ethylbenzamide formate] | 0.664
10 | NC1CCN(C(=O)N2CCN(C(=O)c3ccc(Nc4nccn5c(-c6c[nH]nc6C(F)(F)F)cnc45)cc3Cl)CC2)CC1 [Example 285, [4-(4-aminopiperidine-1-carbonyl)piperazin-1-yl]-[2-chloro-4-[[3-[3-(trifluoromethyl)-1H-pyrazol-4-yl]imidazo[1,2-a]pyrazin-8-yl]amino]phenyl] methanone formate] | 0.185
11 | N#CCn1cc(-c2cnc3c(Nc4ccc(C(=O)N5CCN(C(=O)CCN)CC5)c(Cl)c4)nccn23)c(C(F)(F)F)n1 [Example 286, 2-[4-[8-[4-[4-(3-aminopropanoyl)piperazine-1-carbonyl]-3-chloroanilino]imidazo[1,2-a]pyrazin-3-yl]-3-(trifluoromethyl)pyrazol-1-yl]acetonitrile formate] | 0.226
12 | N#CCn1cc(-c2cnc3c(Nc4ccc(C(=O)N5CCN(C(=O)N[C@@H]6CCNC6)CC5)c(Cl)c4)nccn23)c(C(F)(F)F)n1 [Example 288, 4-[2-chloro-4-[[3-[1-(cyanomethyl)-3-(trifluoromethyl)pyrazol-4-yl]imidazo[1,2-a]pyrazin-8-yl]amino]benzoyl]-N-[(3R)-pyrrolidin-3-yl]piperazine-1-carboxamide formate] | 0.233

Same assay, conditions: Acinetobacter baumannii, ATCC17961, 16 h, strain ATCC 17961, OD600 growth over 16 h, read-out: A. baumannii ATCC 17961 IC90

Row | IC90 [µM] | SMILES
13 | 2.43 | CCc1cc(Nc2nccn3c(-c4c[nH]nc4C(F)(F)F)cnc23)ccc1C(=O)NCCC1(N)CC1 [Example 263, N-[2-(1-aminocyclopropyl)ethyl]-2-ethyl-4-[[3-[3-(trifluoromethyl)-1H-pyrazol-4-yl]imidazo[1,2-a]pyrazin-8-yl]amino]benzamide]
14 | 0.225 | CCc1cc(Nc2nccn3c(-c4cn(CC(C)CO)nc4C(F)(F)F)cnc23)ccc1C(=O)NCCOCCN (centres unmarked) [Example 267, N-[2-(2-aminoethoxy)ethyl]-2-ethyl-4-[[3-[1-(3-hydroxy-2-methylpropyl)-3-(trifluoromethyl)pyrazol-4-yl]imidazo[1,2-a]pyrazin-8-yl]amino]benzamide]
15 | 0.346 | CCc1cc(Nc2nccn3c(-c4cn(CC(O)CC)nc4C(F)(F)F)cnc23)ccc1C(=O)NCCOCCN (centres unmarked) [Example 268, N-[2-(2-aminoethoxy)ethyl]-2-ethyl-4-[[3-[1-(2-hydroxybutyl)-3-(trifluoromethyl)pyrazol-4-yl]imidazo[1,2-a]pyrazin-8-yl]amino]benzamide]
16 | 1.39 | CCc1cc(Nc2nccn3c(-c4cn(CCN5CCCC5)nc4C(F)(F)F)cnc23)ccc1C(=O)NCCOCCN [Example 269, N-[2-(2-aminoethoxy)ethyl]-2-ethyl-4-[[3-[1-(2-pyrrolidin-1-ylethyl)-3-(trifluoromethyl)pyrazol-4-yl]imidazo[1,2-a]pyrazin-8-yl]amino]benzamide]
17 | 2.66 | CCc1cc(Nc2nccn3c(-c4c[nH]nc4C(F)(F)F)cnc23)ccc1C(=O)NCCCNCCCCNCCCN [Example 270, N-[3-[4-(3-aminopropylamino)butylamino]propyl]-2-ethyl-4-[[3-[3-(trifluoromethyl)-1H-pyrazol-4-yl]imidazo[1,2-a]pyrazin-8-yl]amino]benzamide]
18 | 3.07 | CCc1cc(Nc2nccn3c(-c4cn(CC(=O)O)nc4C(F)(F)F)cnc23)ccc1C(=O)NCCOCCN [Example 271, 2-[4-[8-[4-[2-(2-aminoethoxy)ethylcarbamoyl]-3-ethylanilino]imidazo [1,2-a]pyrazin-3-yl]-3-(trifluoromethyl)pyrazol-1-yl]acetic acid]
19 | 0.517 | CCNC(=O)c1ccc(Nc2nccn3c(-c4c[nH]nc4C(F)(F)F)cnc23)cc1CC [Example 280, N,2-diethyl-4-[[3-[3-(trifluoromethyl)-1H-pyrazol-4-yl]imidazo[1,2-a]pyrazin-8-yl]amino]benzamide]
20 | 0.345 | CNC(=O)c1ccc(Nc2nccn3c(-c4cn(Cc5ccncn5)nc4C(F)(F)F)cnc23)cc1Cl [Example 281, 2-chloro-N-methyl-4-[[3-[1-(pyrimidin-4-ylmethyl)-3-(trifluoromethyl)pyrazol-4-yl]imidazo[1,2-a]pyrazin-8-yl]amino]benzamide]
21 | 0.701 | CCc1cc(Nc2nccn3c(-c4cn(Cc5ccncn5)nc4C(F)(F)F)cnc23)ccc1C(=O)NC [Example 282, 2-ethyl-N-methyl-4-[[3-[1-(pyrimidin-4-ylmethyl)-3-(trifluoromethyl)pyrazol-4-yl]imidazo[1,2-a]pyrazin-8-yl]amino]benzamide]
22 | 1.56 | CCc1cc(Nc2nccn3c(-c4cn(CCN)nc4C(F)(F)F)cnc23)ccc1C(=O)NC [Example 283, 4-[[3-[1-(2-aminoethyl)-3-(trifluoromethyl)pyrazol-4-yl]imidazo[1,2-a]pyrazin-8-yl]amino]-2-ethyl-N-methylbenzamide]
23 | 0.177 | CNC(=O)c1ccc(Nc2nccn3c(-c4cn(Cc5cc[nH]n5)nc4C(F)(F)F)cnc23)cc1Cl [Example 284, 2-chloro-N-methyl-4-[[3-[1-(1H-pyrazol-3-ylmethyl)-3-(trifluoromethyl)pyrazol-4-yl]imidazo[1,2-a]pyrazin-8-yl]amino]benzamide]

Same assay, conditions: strain ATCC 17961, OD600 growth over 16 h, read-out: A. baumannii ATCC 17961 IC90

Row | SMILES | IC90 [µM]
24 | N#CCn1cc(-c2cnc3c(Nc4ccc(C(=O)N5CCN(C(=O)NCCN)CC5)c(Cl)c4)nccn23)c(C(F)(F)F)n1 [Example 264, N-(2-aminoethyl)-4-[2-chloro-4-[[3-[1-(cyanomethyl)-3-(trifluoromethyl)pyrazol-4-yl]imidazo[1,2-a]pyrazin-8-yl]amino]benzoyl] piperazine-1-carboxamide formate] | 0.451
25 | NC1CC(NC(=O)N2CCN(C(=O)c3ccc(Nc4nccn5c(-c6c[nH]nc6C(F)(F)F)cnc45)cc3Cl)CC2)C1 (centres unmarked) [Example 265, N-(3-aminocyclobutyl)-4-[2-chloro-4-[[3-[3-(trifluoromethyl)-1H-pyrazol-4-yl]imidazo[1,2-a]pyrazin-8-yl]amino]benzoyl] piperazine-1-carboxamide formate] | 0.231
26 | NC1CCC(NC(=O)N2CCN(C(=O)c3ccc(Nc4nccn5c(-c6c[nH]nc6C(F)(F)F)cnc45)cc3Cl)CC2)CC1 (centres unmarked) [Example 287, N-(4-aminocyclohexyl)-4-[2-chloro-4-[[3-[3-(trifluoromethyl)-1H-pyrazol-4-yl]imidazo[1,2-a]pyrazin-8-yl]amino]benzoyl] piperazine-1-carboxamide formate] | 0.23
